Measurements: patent US20070010498A1, “Method for reducing blood loss associated with cardio-pulmonary bypass surgery” (priority 2005, published 2007)

Test: plasma concentrations of COL-3 in humans
Type: in vivo
Conditions: dose of about 10 to about 20 mg/day

With `NC(=O)C1=C(O)C[C@@H]2C[C@@H]3Cc4cccc(O)c4C(=O)C3=C(O)[C@]2(O)C1=O` [COL-3, 6-demethyl-6-deoxy-4-de(dimethylamino)tetracycline] the plasma concentrations was “about 1.0 μg/ml”.
